PMC6874179, “Development of Macrocycle Kinase Inhibitors for ALK2 Using Fibrodysplasia Ossificans Progressiva‐Derived Endothelial Cells” (JBMR Plus, 2019)

Experiments:
MET_M1250T = molecular target: T1, MET_M1250T (Homo sapiens, UniProt P08581, M1250T); assay: Proqinase Kinase profiling; type: biochemical; details: read-out: % inhibition at 100nM
T1 construct: purchased DiscoverX

CSNK1E = molecular target: T2, CSNK1E (Homo sapiens, UniProt P49674); assay: Proqinase Kinase profiling; type: biochemical; details: read-out: % inhibition at 100nM
T2 construct: purchased DiscoverX

MARK3 = molecular target: T3, MARK3 (Homo sapiens, UniProt P27448); assay: Proqinase Kinase profiling; type: biochemical; details: read-out: % inhibition at 100nM
T3 construct: purchased DiscoverX

MAPKAPK2 = molecular target: T4, MAPKAPK2 (Homo sapiens, UniProt P49137); assay: Proqinase Kinase profiling; type: biochemical; details: read-out: % inhibition at 100nM
T4 construct: purchased DiscoverX

DYRK2 = molecular target: T5, DYRK2 (Homo sapiens, UniProt Q92630); assay: Proqinase Kinase profiling; type: biochemical; details: read-out: % inhibition at 100nM
T5 construct: purchased DiscoverX

MAPK10 = molecular target: T6, MAPK10 (Homo sapiens, UniProt P53779); assay: Proqinase Kinase profiling; type: biochemical; details: read-out: % inhibition at 100nM
T6 construct: purchased DiscoverX

LRRK2 = molecular target: T7, LRRK2 (Homo sapiens, UniProt Q5S007); assay: Proqinase Kinase profiling; type: biochemical; details: read-out: % inhibition at 100nM
T7 construct: purchased DiscoverX

CDK2_cyclinA2 = molecular target: T8, CDK2_cyclinA2 (Homo sapiens, UniProt P24941); assay: Proqinase Kinase profiling; type: biochemical; details: read-out: % inhibition at 100nM
T8 construct: purchased DiscoverX

TSSK2 = molecular target: T9, TSSK2 (Homo sapiens, UniProt Q96PF2); assay: Proqinase Kinase profiling; type: biochemical; details: read-out: % inhibition at 100nM
T9 construct: purchased DiscoverX

EGFR_T790M_L858R = molecular target: T10, EGFR_T790M_L858R (Homo sapiens, UniProt P00533, L858R/T790M); assay: Proqinase Kinase profiling; type: biochemical; details: read-out: % inhibition at 100nM
T10 construct: purchased DiscoverX

DYRK1B = molecular target: T11, DYRK1B (Homo sapiens, UniProt Q9Y463); assay: Proqinase Kinase profiling; type: biochemical; details: read-out: % inhibition at 100nM
T11 construct: purchased DiscoverX

CSNK1D = molecular target: T12, CSNK1D (Homo sapiens, UniProt P48730); assay: Proqinase Kinase profiling; type: biochemical; details: read-out: % inhibition at 100nM
T12 construct: purchased DiscoverX

ALK = molecular target: T13, ALK (Homo sapiens, UniProt Q9UM73); assay: Proqinase Kinase profiling; type: biochemical; details: read-out: % inhibition at 100nM
T13 construct: purchased DiscoverX

HIPK2 = molecular target: T14, HIPK2 (Homo sapiens, UniProt Q9H2X6); assay: Proqinase Kinase profiling; type: biochemical; details: read-out: % inhibition at 100nM
T14 construct: purchased DiscoverX

CSF1R = molecular target: T15, CSF1R (Homo sapiens, UniProt P07333); assay: Proqinase Kinase profiling; type: biochemical; details: read-out: % inhibition at 100nM
T15 construct: purchased DiscoverX

FGFR3 = molecular target: T16, FGFR3 (Homo sapiens, UniProt P22607); assay: Proqinase Kinase profiling; type: biochemical; details: read-out: % inhibition at 100nM
T16 construct: purchased DiscoverX

STK3 = molecular target: T17, STK3 (Homo sapiens, UniProt Q13188); assay: Proqinase Kinase profiling; type: biochemical; details: read-out: % inhibition at 100nM
T17 construct: purchased DiscoverX

RET_R813Q = molecular target: T18, RET_R813Q (Homo sapiens, UniProt P07949, R813Q); assay: Proqinase Kinase profiling; type: biochemical; details: read-out: % inhibition at 100nM
T18 construct: purchased DiscoverX

PKN1 = molecular target: T19, PKN1 (Homo sapiens, UniProt Q16512); assay: Proqinase Kinase profiling; type: biochemical; details: read-out: % inhibition at 100nM
T19 construct: purchased DiscoverX

CLK2 = molecular target: T20, CLK2 (Homo sapiens, UniProt P49760); assay: Proqinase Kinase profiling; type: biochemical; details: read-out: % inhibition at 100nM
T20 construct: purchased DiscoverX

MST4 = molecular target: T21, MST4 (Homo sapiens, UniProt Q9P289); assay: Proqinase Kinase profiling; type: biochemical; details: read-out: % inhibition at 100nM
T21 construct: purchased DiscoverX

LTK = molecular target: T22, LTK (Homo sapiens, UniProt P29376); assay: Proqinase Kinase profiling; type: biochemical; details: read-out: % inhibition at 100nM
T22 construct: purchased DiscoverX

HCK = molecular target: T23, HCK (Homo sapiens, UniProt P08631); assay: Proqinase Kinase profiling; type: biochemical; details: read-out: % inhibition at 100nM
T23 construct: purchased DiscoverX

EIF2AK1 = molecular target: T24, EIF2AK1 (Homo sapiens, UniProt Q9BQI3); assay: Proqinase Kinase profiling; type: biochemical; details: read-out: % inhibition at 100nM
T24 construct: purchased DiscoverX

KIT_V559D = molecular target: T25, KIT_V559D (Homo sapiens, UniProt P10721, V559D); assay: Proqinase Kinase profiling; type: biochemical; details: read-out: % inhibition at 100nM
T25 construct: purchased DiscoverX

CAMK2A = molecular target: T26, CAMK2A (Homo sapiens, UniProt Q9UQM7); assay: Proqinase Kinase profiling; type: biochemical; details: read-out: % inhibition at 100nM
T26 construct: purchased DiscoverX

CAMKK1 = molecular target: T27, CAMKK1 (Homo sapiens, UniProt Q8N5S9); assay: Proqinase Kinase profiling; type: biochemical; details: read-out: % inhibition at 100nM
T27 construct: purchased DiscoverX

ZAK = molecular target: T28, ZAK (Homo sapiens, UniProt Q9NYL2); assay: Proqinase Kinase profiling; type: biochemical; details: read-out: % inhibition at 100nM
T28 construct: purchased DiscoverX

BLK = molecular target: T29, BLK (Homo sapiens, UniProt P51451); assay: Proqinase Kinase profiling; type: biochemical; details: read-out: % inhibition at 100nM
T29 construct: purchased DiscoverX

CAMKK2 = molecular target: T30, CAMKK2 (Homo sapiens, UniProt Q96RR4); assay: Proqinase Kinase profiling; type: biochemical; details: read-out: % inhibition at 100nM
T30 construct: purchased DiscoverX

CSNK1A1 = molecular target: T31, CSNK1A1 (Homo sapiens, UniProt P48729); assay: Proqinase Kinase profiling; type: biochemical; details: read-out: % inhibition at 100nM
T31 construct: purchased DiscoverX

PAK6 = molecular target: T32, PAK6 (Homo sapiens, UniProt Q9NQU5); assay: Proqinase Kinase profiling; type: biochemical; details: read-out: % inhibition at 100nM
T32 construct: purchased DiscoverX

INSRR = molecular target: T33, INSRR (Homo sapiens, UniProt P14616); assay: Proqinase Kinase profiling; type: biochemical; details: read-out: % inhibition at 100nM
T33 construct: purchased DiscoverX

MYLK = molecular target: T34, MYLK (Homo sapiens, UniProt Q15746); assay: Proqinase Kinase profiling; type: biochemical; details: read-out: % inhibition at 100nM
T34 construct: purchased DiscoverX

TTK = molecular target: T35, TTK (Homo sapiens, UniProt P33981); assay: Proqinase Kinase profiling; type: biochemical; details: read-out: % inhibition at 100nM
T35 construct: purchased DiscoverX

MAPK12 = molecular target: T36, MAPK12 (Homo sapiens, UniProt P53778); assay: Proqinase Kinase profiling; type: biochemical; details: read-out: % inhibition at 100nM
T36 construct: purchased DiscoverX

DYRK3 = molecular target: T37, DYRK3 (Homo sapiens, UniProt O43781); assay: Proqinase Kinase profiling; type: biochemical; details: read-out: % inhibition at 100nM
T37 construct: purchased DiscoverX

CLK4 = molecular target: T38, CLK4 (Homo sapiens, UniProt Q9HAZ1); assay: Proqinase Kinase profiling; type: biochemical; details: read-out: % inhibition at 100nM
T38 construct: purchased DiscoverX

NUAK2 = molecular target: T39, NUAK2 (Homo sapiens, UniProt Q9H093); assay: Proqinase Kinase profiling; type: biochemical; details: read-out: % inhibition at 100nM
T39 construct: purchased DiscoverX

JAK3 = molecular target: T40, JAK3 (Homo sapiens, UniProt P52333); assay: Proqinase Kinase profiling; type: biochemical; details: read-out: % inhibition at 100nM
T40 construct: purchased DiscoverX

caALK2 = molecular target: T41, caALK2 (Homo sapiens, UniProt Q04771, Q207D); assay: BRE-LUC with constitutive active ALK2 in C2C12 cells; type: cell-based; details: compound 0.5μM 16 hours
T41 construct: expressed in transfected cells; host or cells: C2C12 murine myofibroblast cells
Description: Compounds were added for 16 hours at 0.5μM before luciferase activity was measured.
For luciferase reporter assays, cells were seeded in 24-well plates and transfected with DharmaFECT Duo (Fisher Scientific, Landsmeer, The Netherlands), following the recommendations of the manufacturer. 48 hours after transfection the cells were harvested and lysed. […] Each transfection mixture was equalized with empty vector when necessary and every experiment was performed in triplicate.

T26 sequence (Q9UQM7 whole entry): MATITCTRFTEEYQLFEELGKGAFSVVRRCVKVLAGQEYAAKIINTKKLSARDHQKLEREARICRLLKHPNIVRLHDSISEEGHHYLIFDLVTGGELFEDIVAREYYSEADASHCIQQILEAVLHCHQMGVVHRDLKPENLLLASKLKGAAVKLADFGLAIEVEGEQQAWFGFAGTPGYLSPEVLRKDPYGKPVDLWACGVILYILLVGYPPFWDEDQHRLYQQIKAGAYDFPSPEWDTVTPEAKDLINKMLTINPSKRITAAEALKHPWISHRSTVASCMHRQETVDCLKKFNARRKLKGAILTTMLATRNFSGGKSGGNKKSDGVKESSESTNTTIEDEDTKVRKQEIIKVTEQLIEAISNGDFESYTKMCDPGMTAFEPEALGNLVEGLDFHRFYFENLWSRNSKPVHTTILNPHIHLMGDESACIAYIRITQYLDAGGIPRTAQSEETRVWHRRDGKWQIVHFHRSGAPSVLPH
T27 sequence (Q8N5S9 whole entry): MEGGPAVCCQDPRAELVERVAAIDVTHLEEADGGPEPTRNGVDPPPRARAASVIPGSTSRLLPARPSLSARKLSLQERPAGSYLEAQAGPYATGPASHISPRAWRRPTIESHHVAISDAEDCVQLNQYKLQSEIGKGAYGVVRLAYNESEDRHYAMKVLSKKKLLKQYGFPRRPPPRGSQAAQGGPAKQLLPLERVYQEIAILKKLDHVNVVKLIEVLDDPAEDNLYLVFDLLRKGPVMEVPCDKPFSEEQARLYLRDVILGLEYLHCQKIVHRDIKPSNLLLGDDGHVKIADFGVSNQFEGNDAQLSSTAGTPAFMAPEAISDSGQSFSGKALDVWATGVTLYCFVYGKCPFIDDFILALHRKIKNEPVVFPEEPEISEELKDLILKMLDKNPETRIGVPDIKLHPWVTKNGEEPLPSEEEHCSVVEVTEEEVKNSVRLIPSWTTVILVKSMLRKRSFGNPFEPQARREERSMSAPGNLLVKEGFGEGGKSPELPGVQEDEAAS
T20 sequence (P49760 whole entry): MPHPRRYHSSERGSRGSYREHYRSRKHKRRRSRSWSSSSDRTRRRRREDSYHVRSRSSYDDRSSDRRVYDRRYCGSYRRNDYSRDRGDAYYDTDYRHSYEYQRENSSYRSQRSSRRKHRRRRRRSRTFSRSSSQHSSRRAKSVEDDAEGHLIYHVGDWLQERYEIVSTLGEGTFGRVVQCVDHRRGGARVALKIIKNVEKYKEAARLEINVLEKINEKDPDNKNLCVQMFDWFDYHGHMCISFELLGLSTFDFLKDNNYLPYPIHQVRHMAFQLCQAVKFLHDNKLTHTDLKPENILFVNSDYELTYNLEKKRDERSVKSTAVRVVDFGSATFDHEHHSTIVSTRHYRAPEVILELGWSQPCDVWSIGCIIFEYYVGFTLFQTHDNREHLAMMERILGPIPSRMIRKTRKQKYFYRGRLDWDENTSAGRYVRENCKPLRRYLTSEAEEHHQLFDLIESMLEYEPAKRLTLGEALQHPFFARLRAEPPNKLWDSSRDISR
T35 sequence (P33981 whole entry): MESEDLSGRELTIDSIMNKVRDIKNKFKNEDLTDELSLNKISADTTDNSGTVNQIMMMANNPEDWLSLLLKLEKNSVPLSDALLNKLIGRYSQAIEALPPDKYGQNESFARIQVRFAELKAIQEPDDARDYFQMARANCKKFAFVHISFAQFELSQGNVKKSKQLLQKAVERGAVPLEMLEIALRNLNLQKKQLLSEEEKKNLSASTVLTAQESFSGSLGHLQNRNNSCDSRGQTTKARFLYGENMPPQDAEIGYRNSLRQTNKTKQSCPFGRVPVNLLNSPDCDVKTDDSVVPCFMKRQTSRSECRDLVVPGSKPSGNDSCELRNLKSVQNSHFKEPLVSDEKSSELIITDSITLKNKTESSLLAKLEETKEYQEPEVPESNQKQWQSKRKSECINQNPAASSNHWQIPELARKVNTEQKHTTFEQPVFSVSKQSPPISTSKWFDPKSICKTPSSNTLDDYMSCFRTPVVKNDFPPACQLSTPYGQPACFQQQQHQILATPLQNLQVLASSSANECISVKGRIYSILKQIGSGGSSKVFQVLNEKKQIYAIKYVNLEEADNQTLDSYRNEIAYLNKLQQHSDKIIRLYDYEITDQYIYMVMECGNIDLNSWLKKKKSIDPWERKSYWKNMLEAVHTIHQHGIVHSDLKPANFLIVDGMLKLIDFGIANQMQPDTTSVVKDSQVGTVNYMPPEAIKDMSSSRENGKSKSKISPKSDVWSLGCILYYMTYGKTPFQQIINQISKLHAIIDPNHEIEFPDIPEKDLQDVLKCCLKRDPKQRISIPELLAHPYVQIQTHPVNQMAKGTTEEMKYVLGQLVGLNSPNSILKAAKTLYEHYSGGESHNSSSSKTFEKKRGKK
T15 sequence (P07333 20-972): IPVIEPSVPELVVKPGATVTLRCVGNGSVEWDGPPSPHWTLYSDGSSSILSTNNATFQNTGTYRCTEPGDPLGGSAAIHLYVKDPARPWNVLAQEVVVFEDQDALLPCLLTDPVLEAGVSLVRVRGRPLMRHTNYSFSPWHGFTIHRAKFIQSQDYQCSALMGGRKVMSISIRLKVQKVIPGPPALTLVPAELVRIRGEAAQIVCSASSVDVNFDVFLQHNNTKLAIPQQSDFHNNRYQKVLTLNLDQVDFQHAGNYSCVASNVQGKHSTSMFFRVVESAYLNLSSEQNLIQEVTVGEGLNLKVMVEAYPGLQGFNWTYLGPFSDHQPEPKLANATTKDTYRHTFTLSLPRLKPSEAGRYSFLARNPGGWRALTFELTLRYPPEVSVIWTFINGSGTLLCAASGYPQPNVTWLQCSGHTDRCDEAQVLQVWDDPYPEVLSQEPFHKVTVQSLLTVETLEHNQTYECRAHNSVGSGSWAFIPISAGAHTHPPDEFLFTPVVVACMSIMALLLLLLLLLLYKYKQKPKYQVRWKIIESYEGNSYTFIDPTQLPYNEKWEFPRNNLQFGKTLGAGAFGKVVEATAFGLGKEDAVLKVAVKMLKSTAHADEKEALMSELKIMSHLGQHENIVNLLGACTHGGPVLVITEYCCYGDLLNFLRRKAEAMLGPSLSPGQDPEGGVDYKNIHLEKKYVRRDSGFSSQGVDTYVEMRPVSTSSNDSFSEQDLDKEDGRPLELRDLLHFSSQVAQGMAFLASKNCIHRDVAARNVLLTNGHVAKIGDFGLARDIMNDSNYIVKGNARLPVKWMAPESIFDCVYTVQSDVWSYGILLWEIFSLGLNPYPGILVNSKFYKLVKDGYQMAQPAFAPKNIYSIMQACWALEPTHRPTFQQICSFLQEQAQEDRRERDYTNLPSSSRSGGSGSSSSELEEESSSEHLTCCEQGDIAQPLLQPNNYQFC
T36 sequence (P53778 whole entry): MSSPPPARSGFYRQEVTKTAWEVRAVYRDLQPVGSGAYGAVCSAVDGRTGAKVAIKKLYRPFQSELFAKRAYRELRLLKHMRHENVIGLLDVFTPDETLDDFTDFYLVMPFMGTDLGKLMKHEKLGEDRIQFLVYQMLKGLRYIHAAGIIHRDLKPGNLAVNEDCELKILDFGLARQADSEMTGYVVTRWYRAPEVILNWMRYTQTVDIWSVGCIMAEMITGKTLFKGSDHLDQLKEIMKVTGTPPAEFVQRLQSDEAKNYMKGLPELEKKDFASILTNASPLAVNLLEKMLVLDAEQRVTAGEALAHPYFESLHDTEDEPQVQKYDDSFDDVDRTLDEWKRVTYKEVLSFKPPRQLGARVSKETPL
T32 sequence (Q9NQU5 whole entry): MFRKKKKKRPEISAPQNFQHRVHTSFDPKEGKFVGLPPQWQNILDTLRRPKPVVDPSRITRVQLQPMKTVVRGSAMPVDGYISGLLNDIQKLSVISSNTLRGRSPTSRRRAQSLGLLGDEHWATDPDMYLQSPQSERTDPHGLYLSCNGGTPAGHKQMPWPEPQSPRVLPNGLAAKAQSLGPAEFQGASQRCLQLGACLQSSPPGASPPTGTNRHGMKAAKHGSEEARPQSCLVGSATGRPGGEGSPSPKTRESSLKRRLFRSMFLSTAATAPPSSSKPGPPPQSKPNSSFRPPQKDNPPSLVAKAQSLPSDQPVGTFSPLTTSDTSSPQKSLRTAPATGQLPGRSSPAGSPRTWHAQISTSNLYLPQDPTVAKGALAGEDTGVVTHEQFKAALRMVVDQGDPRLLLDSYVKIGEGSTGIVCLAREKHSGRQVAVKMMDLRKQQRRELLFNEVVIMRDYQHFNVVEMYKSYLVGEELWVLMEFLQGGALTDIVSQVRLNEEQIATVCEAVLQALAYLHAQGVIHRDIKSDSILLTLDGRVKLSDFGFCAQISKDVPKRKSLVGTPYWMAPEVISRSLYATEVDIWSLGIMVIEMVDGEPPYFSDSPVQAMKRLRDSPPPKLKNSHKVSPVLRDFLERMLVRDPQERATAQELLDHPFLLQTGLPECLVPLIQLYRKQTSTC
T21 sequence (Q9P289 whole entry): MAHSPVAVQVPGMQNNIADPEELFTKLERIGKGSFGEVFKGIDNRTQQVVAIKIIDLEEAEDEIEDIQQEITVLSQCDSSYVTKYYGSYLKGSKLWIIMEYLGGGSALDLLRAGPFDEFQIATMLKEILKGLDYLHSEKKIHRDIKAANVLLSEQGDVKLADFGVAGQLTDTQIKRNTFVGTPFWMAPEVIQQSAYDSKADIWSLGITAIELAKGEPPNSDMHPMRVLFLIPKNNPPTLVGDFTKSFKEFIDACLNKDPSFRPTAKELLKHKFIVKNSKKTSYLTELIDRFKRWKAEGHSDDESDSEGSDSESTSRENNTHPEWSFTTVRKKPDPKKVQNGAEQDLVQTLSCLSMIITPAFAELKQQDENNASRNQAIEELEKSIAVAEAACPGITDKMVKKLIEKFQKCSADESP

## Clc1cc2cc(c1)-c1cnn3ccc(nc13)NCCOCCO2 [OD36]
MET_M1250T
  inhibition at 0.1 µM: 12%
CSNK1E
  inhibition at 0.1 µM: 6%
MARK3
  inhibition at 0.1 µM: 8%
MAPKAPK2
  inhibition at 0.1 µM: -9%
DYRK2
  inhibition at 0.1 µM: 2%
MAPK10
  inhibition at 0.1 µM: 17%
LRRK2
  inhibition at 0.1 µM: 53%
CDK2_cyclinA2
  inhibition at 0.1 µM: 4%
TSSK2
  inhibition at 0.1 µM: -6%
EGFR_T790M_L858R
  inhibition at 0.1 µM: -13%
DYRK1B
  inhibition at 0.1 µM: 13%
CSNK1D
  inhibition at 0.1 µM: 10%
ALK
  inhibition at 0.1 µM: 6%
HIPK2
  inhibition at 0.1 µM: 16%
CSF1R
  inhibition at 0.1 µM: 16%
FGFR3
  inhibition at 0.1 µM: 7%
STK3
  inhibition at 0.1 µM: 12%
RET_R813Q
  inhibition at 0.1 µM: 45%
PKN1
  inhibition at 0.1 µM: 16%
CLK2
  inhibition at 0.1 µM: 10%
MST4
  inhibition at 0.1 µM: 3%
LTK
  inhibition at 0.1 µM: 6%
HCK
  inhibition at 0.1 µM: 29%
EIF2AK1
  inhibition at 0.1 µM: -4%
KIT_V559D
  inhibition at 0.1 µM: 15%
CAMK2A
  inhibition at 0.1 µM: 18%
CAMKK1
  inhibition at 0.1 µM: 20%
ZAK
  inhibition at 0.1 µM: 70%
BLK
  inhibition at 0.1 µM: 35%
CAMKK2
  inhibition at 0.1 µM: 3%
CSNK1A1
  inhibition at 0.1 µM: -6%
PAK6
  inhibition at 0.1 µM: 1%
INSRR
  inhibition at 0.1 µM: 0%
MYLK
  inhibition at 0.1 µM: 12%
TTK
  inhibition at 0.1 µM: 10%
MAPK12
  inhibition at 0.1 µM: 24%
DYRK3
  inhibition at 0.1 µM: 0%
CLK4
  inhibition at 0.1 µM: 22%
NUAK2
  inhibition at 0.1 µM: 9%
JAK3
  inhibition at 0.1 µM: 6%
caALK2
  Inhibition of caALK2-driven BRE-LUC activity: exclusively inhibited ALK2

## Cc1cc2cc(c1)-c1cnn3ccc(nc13)NCCNC(=O)CCN(C)C2 [OD52]
MET_M1250T
  inhibition at 0.1 µM: -19%
CSNK1E
  inhibition at 0.1 µM: 20%
MARK3
  inhibition at 0.1 µM: -1%
MAPKAPK2
  inhibition at 0.1 µM: -1%
DYRK2
  inhibition at 0.1 µM: 9%
MAPK10
  inhibition at 0.1 µM: 1%
LRRK2
  inhibition at 0.1 µM: 10%
CDK2_cyclinA2
  inhibition at 0.1 µM: 0%
TSSK2
  inhibition at 0.1 µM: 11%
EGFR_T790M_L858R
  inhibition at 0.1 µM: 0%
DYRK1B
  inhibition at 0.1 µM: -6%
CSNK1D
  inhibition at 0.1 µM: 5%
ALK
  inhibition at 0.1 µM: 8%
HIPK2
  inhibition at 0.1 µM: -2%
CSF1R
  inhibition at 0.1 µM: -1%
FGFR3
  inhibition at 0.1 µM: -9%
STK3
  inhibition at 0.1 µM: 5%
RET_R813Q
  inhibition at 0.1 µM: 37%
PKN1
  inhibition at 0.1 µM: 5%
CLK2
  inhibition at 0.1 µM: 1%
MST4
  inhibition at 0.1 µM: -17%
LTK
  inhibition at 0.1 µM: -8%
HCK
  inhibition at 0.1 µM: 0%
EIF2AK1
  inhibition at 0.1 µM: 2%
KIT_V559D
  inhibition at 0.1 µM: -6%
CAMK2A
  inhibition at 0.1 µM: 25%
CAMKK1
  inhibition at 0.1 µM: -8%
ZAK
  inhibition at 0.1 µM: 6%
BLK
  inhibition at 0.1 µM: -6%
CAMKK2
  inhibition at 0.1 µM: 2%
CSNK1A1
  inhibition at 0.1 µM: 1%
PAK6
  inhibition at 0.1 µM: 4%
INSRR
  inhibition at 0.1 µM: 6%
MYLK
  inhibition at 0.1 µM: 11%
TTK
  inhibition at 0.1 µM: -9%
MAPK12
  inhibition at 0.1 µM: -10%
DYRK3
  inhibition at 0.1 µM: -5%
CLK4
  inhibition at 0.1 µM: 4%
NUAK2
  inhibition at 0.1 µM: -7%
JAK3
  inhibition at 0.1 µM: -3%
caALK2
  Inhibition of caALK2-driven BRE-LUC activity: exclusively inhibited ALK2
